# Experimental data taken from patent US6403788B1, “Non-genotoxic metalloporphyrins as synthetic catalytic scavengers of reactive oxygen species” (Eukarion, Inc., priority 2000, dated 2002).
# What was measured:
# Format in all cases: biochemical, phage ΦX 174
# [1] = test system: ΦX 174 DNA Plasmid (Form I); assay: Cleavage of ΦX 174 DNA plasmid (form I), compound alone or activated with KHSO5
# Source text: (§1) The DNA cleavage activity was quantified in terms of number of single-strand breaks per DNA molecule according to the equation […], Io=% form I (supercoiled DNA) in the DNA control, and I=% form I in the experiment (see Bernadou et al, Biochemistry, 28: 7268-7275, (1989)). This assay is very sensitive and is able to detect very low levels of DNA activity. S values less than S=1.0 are indicative of very low DNA cleavage activity when the compounds are at a concentration of equal to or less than 1000 nM and KHSO5 is present at a concentration of equal to or less than 100 μM.
# (§2) ΦX 174 DNA digestion conditions for standard experiments were as follows: commercially available DNA was diluted to 50 μg/mL in phosphate buffer (10 mM, pH 7.5). The reaction involved 5 μL of ΦX 174 DNA (50 μg/mL, 74.8 μM in base pairs), 5 μL of 40 mM phosphate buffer, pH 7.5 with 400 mM NaCl, 5 μL of metalloporphyrin in double-distilled water or 5 μL of iron-bleomycin complex in double-distilled water, and 5 μL of KHSO5 or 5 μL of H2O2 or 5 μL of ascorbate in double-distilled water. Preincubation of DNA and metalloporphyrins or iron-bleomycin complex was performed for about 15 min. The digestion time in the presence of KHSO5 was 10 min, of H2O2 was 30 min and of ascorbate was 30 min at 20° C. DNA cleavage was monitored by agarose gel electrophoresis. Reactions with KHSO5 were first quenched by 2 μL of 100 mM Hepes buffer, pH 8. In all cases, reactions were quenched by 5 μL of a stopping reagent. The stopping reagent consisted of 250 mM Hepes buffer, pH 7.4, containing 75% glycerol and 0.05% bromophenol blue. Reaction mixtures were then run in 0.8% agarose slab horizontal gel containing ethidium bromide […], at constant current (25 mA for 15h), in 89 mM Tris-borate buffer and 2.5 mM EDTA pH 8.3. Bands were located by WV light (254 nm), photographed, and quantitated by microdensitometry. The correction coefficient 1.47±0.30 was used for decreased stainability of form I DNA vs form II DNA and form III DNA.
# [2] = test system: ΦX 174 DNA Plasmid (Form I); assay: Cleavage of ΦX 174 DNA plasmid (form I), activation with ascorbate in the presence of air; conditions: for S (single-strand breaks per DNA molecule) / form % I / form % II / form % III: DNA 3.5 nM
# Source text: as §1, §2
# [3] = test system: ΦX 174 DNA Plasmid (Form I); assay: Cleavage of ΦX 174 DNA plasmid (form I), activation with H2O2; conditions: DNA 3.5 nM, compound 1 μM, H2O2 1 mM
# Source text: as §1, §2
# [4] = DNA 3.5 nM, compound 1 μM, KHSO5 100 μM
# [5] = compound 10 nM, without ascorbate (Table II)
compound,measurement,setting,value
"CC(=O)[O-].CC(=O)[O-].CC(=O)[O-].CC(=O)[O-].CC(=O)[O-].CC[N+](C)(CC)CCNS(=O)(=O)c1c(C)cc(C)c(C2=C3C=CC4=[N+]3[Fe-]35[n]6c2ccc6C(c2c(C)cc(C)c(S(=O)(=O)NCC[N+](C)(CC)CC)c2C)=C2C=CC(=[N+]23)C(c2c(C)cc(C)c(S(=O)(=O)NCC[N+](C)(CC)CC)c2C)=c2ccc([n]25)=C4c2c(C)cc(C)c(S(=O)(=O)NCC[N+](C)(CC)CC)c2C)c1C [Structural Formula VIII, meso-tetrakis[3-(N-(2-(N,N,N-diethylmethylammonio)ethyl)aminosulfonyl)-2,4,6-trimethylphenyl]porphyrinato diaqua-iron(III) pentaacetate]",S (single-strand breaks per DNA molecule),[1]; [4],0.03 SSBs
same,form % I,[1]; [4],90%
same,form % II,[1]; [4],10%
same,form % III,[1]; [4],0%
same,DNA cleavage activity in oxidative medium,[1]; oxidative medium (KHSO5),do not exhibit any significant DNA cleavage activity
same,S (single-strand breaks per DNA molecule),"[2]; compound 1 μM, Asc. 1 mM",1.61 SSBs
same,form % I,"[2]; compound 1 μM, Asc. 1 mM",43%
same,form % II,"[2]; compound 1 μM, Asc. 1 mM",57%
same,form % III,"[2]; compound 1 μM, Asc. 1 mM",0%
same,S (single-strand breaks per DNA molecule),[3],0.13 SSBs
same,form % I,[3],86%
same,form % II,[3],14%
same,form % III,[3],0%
Bleomycin [reference compound],DNA cleavage,"[2]; 1 μM concentration, ascorbate",all DNA is cleaved in small fragments
same,S (single-strand breaks per DNA molecule),"[2]; compound 10 nM, Asc. 1 mM",7.79 SSBs
same,form % I,"[2]; compound 10 nM, Asc. 1 mM",7%
same,form % II,"[2]; compound 10 nM, Asc. 1 mM",71%
same,form % III,"[2]; compound 10 nM, Asc. 1 mM",22%
same,S (single-strand breaks per DNA molecule),[2]; [5],0.01 SSBs
same,form % I,[2]; [5],94%
same,form % II,[2]; [5],6%
same,form % III,[2]; [5],0%
same,times more active in DNA cleavage than Structural Formula V,"[2]; same concentration (10 nM), ascorbate 1 mM, from experiments 2, 3, 7 and 8",768 times
